In brackets after ≈: the same amount, converted by molar mass.
Tested on: various strains of bacteria
Experiment: Antimicrobial potency: bacterial growth inhibition by OD600 (Antibacterial assay 1, MITC95)
Type: cell-based, A. baumannii
Settings: lowest concentration giving >95% growth inhibition, CAMHB, 18-22 h
Experimental: The concentrations of compounds required to inhibit the growth of various strains of bacteria were determined in an assay that assessed bacterial growth by measuring optical density at 600 nm (OD600). Test articles were dissolved in 100% DMSO and serially diluted two-fold from their maximal concentration in 100% DMSO. Forty-nine μl of bacterial inoculum (at approx. 2×10^5 cfu/mL in CAMHB) were put into wells of an assay plate. One μl of compound or DMSO was transferred from the source plate to the assay plate. The completed assay plates were then incubated at 35+2degC for 18-22 h. Bacterial growth was measured by reading OD600 on a spectrophotometer. Data analysis calculates the lowest concentration of compound which results in >95% growth inhibition (minimum inhibitory threshold concentration 95%, MITC95).

| MIC (Acinetobacter baumannii, 20 h) [µM] | Structure (SMILES) | MIC [µM] |
| --- | --- | --- |
| 0.0245 (≈ 0.0217 µg/mL) | O=C(O)c1cc(OCC2CCC(COc3ccc(NS(=O)(=O)c4cnn(-c5ccc(Cl)cc5)c4)c(C(=O)O)c3)O2)ccc1NS(=O)(=O)c1cnn(-c2ccc(Cl)cc2)c1 (centres unmarked) [Compound 19, 5-((5-((3-Carboxy-4-((1-(4-chlorophenyl)-1H-pyrazole)-4-sulfonamido)-phenoxy)methyl)tetrahydrofuran-2-yl)methoxy)-2-((1-(4-chlorophenyl)-1H-pyrazole)-4-sulfonamido)benzoic acid] | – |
| 0.0489 (≈ 0.039 µg/mL) | O=C(O)c1cc(CN2CC(Oc3ccc(NS(=O)(=O)c4cnn(-c5ccc(Cl)cc5)c4)c(C(=O)O)c3)C2)ccc1NS(=O)(=O)CCCc1ccc(F)cc1 [Compound 42] | – |
| 0.0489 (≈ 0.0415 µg/mL) | O=C(O)c1cc(CNC2CC(CNc3ccc(NS(=O)(=O)c4cnn(-c5ccc(F)cc5)c4)c(C(=O)O)c3)C2)ccc1NS(=O)(=O)c1cnn(-c2ccc(Cl)cc2)c1 (centres unmarked) [Compound 29] | – |
| 0.0122 (≈ 0.0106 µg/mL) | O=C(O)c1cc(CN[C@H]2C[C@@H](COc3ccc(NS(=O)(=O)N4CCOC(c5ccc(F)cc5)C4)c(C(=O)O)c3)C2)ccc1NS(=O)(=O)N1CCOC(c2ccc(F)cc2)C1 (some centres unmarked) [Compound 95] | – |
| 0.0245 (≈ 0.0199 µg/mL) | O=C(O)c1cc(CN2CC(Oc3ccc(NS(=O)(=O)c4ccc(-c5ccc(Cl)cc5)cc4)c(C(=O)O)c3)C2)ccc1NS(=O)(=O)c1ccc(OC(F)F)cc1 [Compound 103] | – |
| 0.0489 (≈ 0.0374 µg/mL) | O=C(CCc1ccc(Cl)cc1)Nc1ccc(OC2CN(Cc3ccc(NS(=O)(=O)c4cnn(-c5ccc(Cl)cc5)c4)c(C(=O)O)c3)C2)cc1C(=O)O [Compound 65, 5-((1-(3-carboxy-4-((1-(4-chlorophenyl)-1H-pyrazole)-4-sulfonamido)-benzyl)azetidin-3-yl)oxy)-2-(3-(4-chlorophenyl)propanamido)benzoic acid] | – |
| 0.0489 (≈ 0.0415 µg/mL) | O=C(O)c1cc(CNC2CC(CNc3ccc(NS(=O)(=O)c4cnn(-c5ccc(Cl)cc5)c4)c(C(=O)O)c3)C2)ccc1NS(=O)(=O)c1cnn(-c2ccc(F)cc2)c1 (centres unmarked) [Compound 35] | – |
| 0.00611 (≈ 0.00532 µg/mL) | O=C(O)c1cc(OC[C@H]2C[C@@H](NCc3ccc(NS(=O)(=O)N4CCOC(c5ccc(F)cc5)C4)c(C(=O)O)c3)C2)ccc1NS(=O)(=O)c1cnc(-c2ccc(F)cc2)s1 (some centres unmarked) [Compound 92] | – |
| 0.0489 (≈ 0.0399 µg/mL) | O=C(O)c1cc(CN2CC(Oc3ccc(NS(=O)(=O)c4ccc(-c5ccc(F)cc5)cc4)c(C(=O)O)c3)C2)ccc1NS(=O)(=O)c1cnn(-c2ccc(F)cc2)c1 [Compound 100] | – |
| 0.0489 (≈ 0.0426 µg/mL) | O=C(O)c1cc(OC[C@H]2CC[C@@H](COc3ccc(NS(=O)(=O)c4ccc(-c5ccc(F)cc5)cc4)c(C(=O)O)c3)O2)ccc1NS(=O)(=O)c1ccc(-c2ccc(F)cc2)cc1 [Compound 22] | – |
| 1.57 (≈ 1.25 µg/mL) | O=C(O)c1cc(OC2CN(Cc3ccc(NS(=O)(=O)N4CCOC(c5ccc(F)cc5)C4)c(C(=O)O)c3)C2)ccc1NS(=O)(=O)N1CCOC(CCO)C1 (centres unmarked) [Compound 47] | – |
| 0.0245 (≈ 0.0212 µg/mL) | O=C(O)c1cc(CNC2CC(CNc3ccc(NS(=O)(=O)c4cnn(-c5ccc(Cl)cc5)c4)c(C(=O)O)c3)C2)ccc1NS(=O)(=O)c1cnn(-c2ccc(Cl)cc2)c1 (centres unmarked) [Compound 32] | – |
| 0.0346 (≈ 0.0269 µg/mL) | O=C(O)c1cc(OC2CN(Cc3ccc(NS(=O)(=O)c4ccc(-c5ccc(F)cc5)cc4)c(C(=O)O)c3)C2)ccc1NS(=O)(=O)CCc1ccc(F)cc1 [Compound 83] | – |
| 0.0489 (≈ 0.0385 µg/mL) | CCCCc1ccc(S(=O)(=O)Nc2ccc(CN3CC(Oc4ccc(NS(=O)(=O)c5ccc(-c6ccc(F)cc6)cc5)c(C(=O)O)c4)C3)cc2C(=O)O)cc1 [Compound 108] | – |
| 0.0346 (≈ 0.0278 µg/mL) | O=C(NCc1ccc(Cl)cc1)C(=O)Nc1ccc(OC2CN(Cc3ccc(NS(=O)(=O)c4ccc(-c5ccc(Cl)cc5)cc4)c(C(=O)O)c3)C2)cc1C(=O)O [Compound 54, 5-((1-(3-carboxy-4-((4′-chloro-[1,1′-biphenyl])-4-sulfonamido)benzyl)azetidin-3-yl)oxy)-2-(2-((4-chlorobenzyl)amino)-2-oxoacetamido)benzoic acid] | – |
| 0.0122 (≈ 0.00991 µg/mL) | O=C(NCc1ccc(Cl)cc1)C(=O)Nc1ccc(OC2CN(Cc3ccc(NS(=O)(=O)N4CCOC(c5ccc(Cl)cc5)C4)c(C(=O)O)c3)C2)cc1C(=O)O (centres unmarked) [Compound 60] | – |
| 0.0245 (≈ 0.0206 µg/mL) | O=C(O)c1cc(CN2CC(Oc3ccc(NS(=O)(=O)c4ccc(-c5ccc(Cl)cc5)cc4)c(C(=O)O)c3)C2)ccc1NS(=O)(=O)c1ccc(Oc2ccccc2)nc1 [Compound 105] | – |

| MIC (Acinetobacter baumannii, 20 h) [µM] | Structure (SMILES) | MIC [µM] |
| --- | --- | --- |
| 0.391 (≈ 0.317 µg/mL) | O=C(O)c1cc(CNC2CC(CNc3ccc(NS(=O)(=O)c4cnn(-c5ccc(F)cc5)c4)c(C(=O)O)c3)C2)ccc1NS(=O)(=O)CCc1ccc(Cl)cc1 (centres unmarked) [Compound 27] | – |
| 0.0978 (≈ 0.0779 µg/mL) | O=C(NCc1ccc(Cl)cc1)C(=O)Nc1ccc(CN2CC(Oc3ccc(NS(=O)(=O)N4CCOC(c5ccc(F)cc5)C4)c(C(=O)O)c3)C2)cc1C(=O)O (centres unmarked) [Compound 56] | – |
| < 0.00306 | O=C(O)c1cc(OC[C@H]2C[C@@H](NCc3ccc(NS(=O)(=O)N4CCOC(c5ccc(F)cc5)C4)c(C(=O)O)c3)C2)ccc1NS(=O)(=O)c1cnn(-c2ccc(Cl)cc2)c1 (some centres unmarked) [Compound 89] | – |
| 0.0489 (≈ 0.039 µg/mL) | O=C(O)c1cc(CN2CC(Oc3ccc(NS(=O)(=O)c4cnn(-c5ccc(F)cc5)c4)c(C(=O)O)c3)C2)ccc1NS(=O)(=O)CCCc1ccc(Cl)cc1 [Compound 43] | – |
| 0.196 (≈ 0.163 µg/mL) | O=C(O)c1cc(NCC2CC(NCc3ccc(NS(=O)(=O)c4cnn(-c5ccc(F)cc5)n4)c(C(=O)O)c3)C2)ccc1NS(=O)(=O)c1cnn(-c2ccc(F)cc2)c1 (centres unmarked) [Compound 31] | – |
| 0.0489 (≈ 0.0424 µg/mL) | O=C(O)c1cc(NCC2CC(NCc3ccc(NS(=O)(=O)c4cnc(-c5ccc(Cl)cc5)s4)c(C(=O)O)c3)C2)ccc1NS(=O)(=O)c1cnn(-c2ccc(F)cc2)c1 (centres unmarked) [Compound 26] | – |
| – | O=C(O)c1cc(CNC2CC(COc3ccc(NS(=O)(=O)c4cnn(-c5ccc(Cl)cc5)c4)c(C(=O)O)c3)C2)ccc1NS(=O)(=O)c1cnn(-c2ccc(Cl)cc2)c1 (centres unmarked) [Compound 87, 5-(((1s, 3s)-3-((3-carboxy-4-((1-(4-chlorophenyl)-1H-pyrazole)-4-sulfonamido)benzyl)amino)cyclobutyl)methoxy)-2-((1-(4-chlorophenyl)-1H-pyrazole)-4-sulfonamido)benzoic acid] | 0.0245 (≈ 0.0212 µg/mL) |
| 0.196 (≈ 0.147 µg/mL) | O=C(Cc1cccc(Cl)c1)Nc1ccc(OC2CN(Cc3ccc(NS(=O)(=O)c4cnn(-c5ccc(Cl)cc5)c4)c(C(=O)O)c3)C2)cc1C(=O)O [Compound 73] | – |
| 0.391 (≈ 0.33 µg/mL) | O=C(O)c1cc(CN2CC(Oc3ccc(NS(=O)(=O)N4CCOC(c5ccc(F)cc5)C4)c(C(=O)O)c3)C2)ccc1NS(=O)(=O)N1CCOC(c2ccc(F)cc2)C1 (centres unmarked) [Compound 44, 5-((1-(3-carboxy-4-((2-(4-fluorophenyl)morpholine)-4-sulfonamido)benzyl)azetidin-3-yl)oxy)-2-((2-(4-fluorophenyl)morpholine)-4-sulfonamido)benzoic acid] | – |
| 0.277 (≈ 0.219 µg/mL) | O=C(CCCC(=O)c1ccc(F)cc1)Nc1ccc(OC2CN(Cc3ccc(NS(=O)(=O)c4cnn(-c5ccc(Cl)cc5)c4)c(C(=O)O)c3)C2)cc1C(=O)O [Compound 75] | – |
| 0.277 (≈ 0.233 µg/mL) | O=C(O)c1cc(OC2CN(Cc3ccc(NS(=O)(=O)c4cnn(-c5ccc(F)cc5)c4)c(S(=O)(=O)O)c3)C2)ccc1NS(=O)(=O)c1cnn(-c2ccc(F)cc2)c1 [Compound 3, 2-((1-(4-fluorophenyl)-1H-pyrazole)-4-sulfonamido)-5-((1-(4-((1-(4-fluorophenyl)-1H-pyrazole)-4-sulfonamido)-3-sulfobenzyl)azetidin-3-yl)oxy)benzoic acid] | – |
| 0.321 (≈ 0.278 µg/mL) | O=C(O)c1cc(CN[C@H]2C[C@@H](NCc3ccc(NS(=O)(=O)c4cnn(-c5ccc(Cl)cc5)c4)c(C(=O)O)c3)C2)ccc1NS(=O)(=O)c1cnn(-c2ccc(Cl)cc2)c1 [Compound 48, 5-((((1s, 3s)-3-((3-carboxy-4-((1-(4-chlorophenyl)-1H-pyrazole)-4-sulfonamido)benzyl)amino)cyclobutyl)amino)methyl)-2-((1-(4-chlorophenyl)-1H-pyrazole)-4-sulfonamido)benzoic acid] | – |
| 0.0489 (≈ 0.0415 µg/mL) | O=C(O)c1cc(OC2CN(Cc3ccc(NS(=O)(=O)c4ccc(-c5ccc(Cl)cc5)s4)c(C(=O)O)c3)C2)ccc1NS(=O)(=O)c1ccc(-c2ccc(F)cc2)cc1 [Compound 107] | – |
| 0.0489 (≈ 0.0411 µg/mL) | O=C(O)c1cc(CN2CC(Oc3ccc(NS(=O)(=O)c4cnn(-c5ccc(F)cc5)c4)c(C(=O)O)c3)C2)ccc1NS(=O)(=O)CCCCCCc1ccc(Cl)cc1 [Compound 40] | – |
| 3.13 (≈ 2.75 µg/mL) | C[C@]1(NCc2ccc(NS(=O)(=O)c3cnn(-c4ccc(Cl)cc4)c3)c(C(=O)O)c2)C[C@@H](NCc2ccc(NS(=O)(=O)c3cnn(-c4ccc(Cl)cc4)c3)c(C(=O)O)c2)C1 [Compound 51] | – |
| 0.0122 (≈ 0.00995 µg/mL) | O=C(O)c1cc(CN2CC(Oc3ccc(NS(=O)(=O)N4CC(Oc5ccc(F)cc5)C4)c(C(=O)O)c3)C2)ccc1NS(=O)(=O)N1CC(Oc2ccc(F)cc2)C1 [Compound 80, 5-((1-(3-carboxy-4-((3-(4-fluorophenoxy)azetidine)-1-sulfonamido)benzyl)azetidin-3-yl)oxy)-2-((3-(4-fluorophenoxy)azetidine)-1-sulfonamido)benzoic acid] | – |
| 0.391 (≈ 0.349 µg/mL) | O=C(O)c1cc(CNC23CCC(NCc4ccc(NS(=O)(=O)c5cnn(-c6ccc(Cl)cc6)c5)c(C(=O)O)c4)(C2)C3)ccc1NS(=O)(=O)c1cnn(-c2ccc(Cl)cc2)c1 [Compound 50] | – |

| Structure (SMILES) | MIC (Acinetobacter baumannii, 20 h) [µM] | MIC [µM] |
| --- | --- | --- |
| O=C(O)c1cc(COC2CC(OCc3ccc(NS(=O)(=O)c4cnn(-c5ccc(F)cc5)c4)c(C(=O)O)c3)C2)ccc1NS(=O)(=O)c1cnn(-c2ccc(F)cc2)c1 (stereo not drawn) [Compound 12, trans-5-((3-((3-carboxy-4-((1-(4-fluorophenyl)-1H-pyrazole)-4-sulfonamido)benzyl)oxy)-cyclobutoxy)methyl)-2-((1-(4-fluorophenyl)-1H-pyrazole)-4-sulfonamido)benzoic acid] | 0.138 (≈ 0.115 µg/mL) | – |

Source: US20250326713A1, “INHIBITORS OF MsbA AS ANTIBIOTICS, PHARMACEUTICAL COMPOSITIONS, AND USES THEREOF” (priority 2022, published 2025)
